Data published in patent US20170112773A1, “PLASMA MEMBRANE VESICLES COMPRISING FUNCTIONAL TRANSMEMBRANE PROTEINS” (Board of Regents, the University of Texas System, priority 2015, published 2017).

Columns and labels:
recipient HeLa cells = assay: Dye delivery study: CRO dye delivery to recipient cells, flow cytometry; assay type: cell-based; details: 300 μM carbenoxolone
Method: The media for the blocked condition was supplemented with 300 μM carbenoxolone, prepared from a 100 mM stock in water. […] Recipient cells for the blocked condition were incubated in PBS supplemented with 300 μM carbenoxolone. Calcein red-orange-loaded vesicles were formed using calcium-free GPMV buffer. […] This ratio was estimated based on hemocytometer counts of the number of vesicles and of the number of recipient cells in a 12 well dish. […] At least 7,500 cells were analyzed for each trial.

in vitro [1] = details: human, MCF-7 cells
Method: To test Connectosomes in a second model cell line, the assay was repeated using recipient MCF-7 cells. […] First, a control study was conducted in which the viability of a confluent monolayer of MCF-7 cells was measured 48 hours after free doxorubicin was added directly to the cell media at increasing concentrations from 10 nM to 100 μM (FIG. 4J). Next, independent cell samples were exposed to increasing concentrations of Connectosomes, which were equivalent in terms of total doxorubicin content to free doxorubicin concentrations of 180 nM, 900 nM, and 4.5 μM.

in vitro [2] = details: human, HeLa cells
Method: Recipient HeLa cells were plated in a 12 well plate at a density of 25,000 cells per well and a total media volume of 2 mL media per well. Seven hours before addition of the GPMVs, recipient cells received fresh media. Just before addition of the GPMVs, the recipient cells were rinsed once with 2 mL PBS and then incubated in 500 μL fresh PBS. Concentrated GPMVs were resuspended in fresh calcium-free GPMV buffer and counted using a hemocytometer. GPMVs were added to recipient cells at a ratio of approximately 1 GPMV per 2 recipient cells and incubated in the dark at 37° C. with 5% CO2 for 2 hours. After incubation, the recipient cells were rinsed with 2 mL media and then incubated in 2 mL fresh media at 37° C. with 5% CO2. After 24 hours, cell viability was analyzed using a trypan blue or 7-AAD permeability assay.
For the trypan blue assay, the cells were trypsinized with 500 μL trypsin for 5 minutes at 37° C., 5% CO2. […] At least 90 cells were counted for each trial using a hemocytometer. […]
The relationship between the concentration of doxorubicin added via solution and cell viability was determined by incubating recipient HeLa cells in the specified doxorubicin concentration diluted in media from a 10 mM stock in DMSO for 24 hours. Cell viability was measured using both viability assays as described above.

HeLa cells = details: 24 hours of exposure, literature; cited from earlier work
in vitro [3] = details: human, HeLa cells; remark: listed apart in the source
Method: Recipient HeLa cells were plated in a 12 well plate at a density of 25,000 cells per well and a total media volume of 2 mL media per well. Seven hours before addition of the GPMVs, recipient cells received fresh media. Just before addition of the GPMVs, the recipient cells were rinsed once with 2 mL PBS and then incubated in 500 μL fresh PBS. Concentrated GPMVs were resuspended in fresh calcium-free GPMV buffer and counted using a hemocytometer. GPMVs were added to recipient cells at a ratio of approximately 1 GPMV per 2 recipient cells and incubated in the dark at 37° C. with 5% CO2 for 2 hours. […] After 24 hours, cell viability was analyzed using a trypan blue or 7-AAD permeability assay.
For the 7-AAD assay, the cells were trypsinized with 500 μL trypsin for 5 minutes at 37° C., 5% CO2. […] Five μL of 7-AAD was added to 45 μL of the resuspended cells, and analyzed using flow cytometry within three minutes of 7-AAD addition. At least 5,000 cells were analyzed for each trial. […] To determine the percentage of non-viable cells in each sample, a threshold was drawn on the flow cytometry fluorescence histograms at the minimum point between the population of cells excluding the dye and the population of cells including the dye. The percentage of cells with fluorescence above these thresholds were considered non-viable. […]

CEM-SS lymphocytes = details: peptide concentration 0.1-1 mM, CEM-SS lymphocytes in culture; cited from earlier work

Which “Effect of gap junction inhibitor on CRO dye delivery by Connectosomes” value (recipient HeLa cells) does the source give for `CC1(C)[C@@H](OC(=O)CCC(=O)O)CC[C@]2(C)[C@H]3C(=O)C=C4[C@@H]5C[C@@](C)(C(=O)O)CC[C@]5(C)CC[C@@]4(C)[C@]3(C)CC[C@@H]12` [carbenoxolone] here?
Its value is “significantly decreased the average recipient cell fluorescence”.

For `COc1cccc2c1C(=O)c1c(O)c3c(c(O)c1C2=O)C[C@@](O)(C(=O)CO)C[C@@H]3O[C@H]1C[C@H](N)[C@H](O)[C@H](C)O1` [free doxorubicin, doxorubicin], which cytotoxicity at 48 h, 100 µM (in vitro [1]) is on record?
Its cytotoxicity at 48 h, 100 µM is 44%.

And the cytotoxicity at 24 h, 10 µM (in vitro [2])?
The cytotoxicity at 24 h, 10 µM was 44%.

And the cytotoxicity at 24 h, 100 µM (in vitro [2])?
Its cytotoxicity at 24 h, 100 µM is 87%.

And the “Cytotoxic dose of doxorubicin” value (HeLa cells)?
Its value is “approximately 10 μM”.

And the cytotoxicity at 24 h, 10 µM (in vitro [3])?
Its cytotoxicity at 24 h, 10 µM is 45%.

Which “Increase of anti-HIV potency of antisense oligonucleotides” value (CEM-SS lymphocytes) does the source give for “SEQ ID NO:1: fusogenic peptide from influenza virus hemagglutinin HA-2” here?
Its value is “up to 10 fold”.
